Experimental data: US7521438B1, “Combination of loteprednol and β2-adrenoceptor agonists” (MEDA Pharma GmbH & Co. KG, priority 1999, dated 2009)

What was measured:
TNFα release = test: LPS-induced TNFα release in human blood diluted 1:5 (ELISA); type: cell-based; details: human blood diluted 1:5, LPS 10 μg/ml, 24 h, n = 8
Procedure: In vitro investigations were carried out for influencing the release of the proinflammatory cytokine TNFα in human blood diluted 1:5. Stimulation was carried out using lipopolysaccharide (LPS) of Salmonella abortus equi (10 μg/ml) over the course of 24 h at 37° C. and 5% CO2 in an incubator. The TNFα release was carried out using an ELISA, composed from antibodies from Pharmigen. The results were indicated as the percentage inhibition of LPS-induced TNFα release (Table 1).

[1] = test system: eosinophilic granulocytes in the pulmonary lavage fluid; test: Late-phase eosinophilia in actively sensitized brown Norway rats, single intrapulmonary administration; type: in vivo; details: 2 h before allergen provocation
Procedure: (§1) The therapeutic breadth of the corticosteroids was determined with the aid of the quotient of the dose (mg/kg) with significant thymus involution (toxic dose) on repeated intrapulmonary administration over the course of 29 days (1× daily) and the therapeutic dose. The therapeutic dose was determined in the asthma model of late-phase eosinophilia on actively sensitized brown Norway rats. The active compound was administered to the sensitized brown Norway rats under anesthesia intrapulmonarily 2 hours before an allergen provocation (challenge) and 24 hours later the lungs of the animals were lavaged under deep anesthesia. The number of eosinophilic granulocytes in the pulmonary lavage fluid of untreated and active compound-treated rats was then determined. Corticosteroids such as loteprednol inhibit the infiltration of eosinophils into the lung after allergen provocation.

[2] = Thymus involution in young rats on intrapulmonary powder administration over 29 days; type: in vivo; details: for Toxic dose with significant thymus involution: repeated intrapulmonary administration, 29 days, 1x daily, young rats; for Quotient of toxic dose: therapeutic dose (therapeutic breadth): toxic dose (mg/kg, 29 days) / ID50 (μg/kg, single dose), intrapulmonary, rats
Procedure: In the second experiment, the influence of loteprednol on the thymus development of young rats (21 days old at the start of the experiment) was intensively investigated in comparison to budesonide and fluticasone (see Table 4). After an intrapulmonary long-term administration of the active compound in powder form over the course of 29 days (1× daily) by means of a tube, at the end of the experiment the thymus glands were removed and the organ weight per 100 g of body mass was determined.
as §1

[3] = test system: eosinophilic granulocytes in the lung; test: Late-phase eosinophilia in actively sensitized guinea pigs, pulmonary lavage 24 h after allergen provocation; type: in vivo; details: guinea pig
[4] = topically administered; cited from earlier work
[5] = topically administered; cited from earlier work; remark: listed apart in the source

| SMILES | inhibition at 10 µM (TNFα release; 10 μmol/l) [%] | Therapeutic dose in late-phase eosinophilia ID50 [1] [µg/kg] | Toxic dose with significant thymus involution [2] [µg/kg] | Quotient of toxic dose: therapeutic dose (therapeutic breadth) [2] | Inhibition of eosinophilia ([3]; 0.001 mg/kg intrapulmonarily) [%] | Inhibition of eosinophilia ([3]; 0.003 mg/kg intrapulmonarily) [%] | inhibition at 0.001 µM (TNFα release; 0.001 μmol/l) [%] | Detection in the plasma [4] | Increase of intraocular pressure [5] |
| --- | --- | --- | --- | --- | --- | --- | --- | --- | --- |
| CC(C)(C)NCC(O)c1ccc(O)c(CO)c1 (stereo not drawn) [Salbutamol, salbutamol] | 17 | – | – | – | – | – | – | – | – |
| C[C@@H]1C[C@H]2[C@@H]3C[C@H](F)C4=CC(=O)C=C[C@]4(C)[C@@]3(F)[C@@H](O)C[C@]2(C)[C@@]1(O)C(=O)SCF [Fluticasone, fluticasone] | – | 0.03 | 1000 | 33 ×10^3 | – | – | – | – | – |
| CCOC(=O)O[C@]1(C(=O)OCCl)CC[C@H]2[C@@H]3CCC4=CC(=O)C=C[C@]4(C)[C@H]3[C@@H](O)C[C@@]21C [Loteprednol, loteprednol] | – | 0.44 | 20000 | 45.5 ×10^3 | 10.5 | 21.8 | 1 | could not be detected in the plasma | does not increase the intraocular pressure |
| CCCC1O[C@@H]2C[C@H]3[C@@H]4CCC5=CC(=O)C=C[C@]5(C)[C@H]4[C@@H](O)C[C@]3(C)[C@]2(C(=O)CO)O1 (stereo partly drawn) [Budesonide, budesonide] | – | 0.1 | 500 | 5 ×10^3 | – | – | – | – | – |
